How the values were obtained:
Type in all cases: in vivo
[1] = system: barnyardgrass (Echinochloa crus-galli, ECHCG); experiment: Pre-emerge test, greenhouse herbicide activity screening; conditions: pre-emerge; for phytotoxicity rating ECHCG: 14 days after application, rating scale 0-100; for Pre-emerge Herbicidal Activity ECHCG (phytotoxicity rating, scale 0-100): rated 14 days after application, 0 = no damage, 100 = complete death
Method in brief: (§1)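 Compounds in acetone were track-sprayed at 15–1000 g ai/ha: pre-emergence onto soil sown the previous day, then top-watered to incorporate and later bottom-watered; post-emergence onto 2–3 leaf plants with 0.25% v/v surfactant, bottom-watered only. Ratings on a 0–100 phytotoxicity scale were taken at day 14.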

[2] = system: large crabgrass (Digitaria sanguinalis, DIGSA); experiment: as above; conditions: pre-emerge; for phytotoxicity rating DIGSA: 14 days after application, rating scale 0-100; for Pre-emerge Herbicidal Activity DIGSA (phytotoxicity rating, scale 0-100): rated 14 days after application, 0 = no damage, 100 = complete death
Method in brief: as §1

[3] = system: sicklepod (Cassia obtusifolia, CASOB); experiment: as above; conditions: pre-emerge; for phytotoxicity rating CASOB: 14 days after application, rating scale 0-100; for Pre-emerge Herbicidal Activity CASOB (phytotoxicity rating, scale 0-100): rated 14 days after application, 0 = no damage, 100 = complete death
Method in brief: as §1

[4] = system: green foxtail (Setaria viridis, SETVI); experiment: as above; conditions: pre-emerge; for phytotoxicity rating SETVI: 14 days after application, rating scale 0-100; for Pre-emerge Herbicidal Activity SETVI (phytotoxicity rating, scale 0-100): rated 14 days after application, 0 = no damage, 100 = complete death
Method in brief: as §1

[5] = system: lambsquarters (Chenopodium album, CHEAL); experiment: as above; conditions: pre-emerge; for phytotoxicity rating CHEAL: 14 days after application, rating scale 0-100; for Pre-emerge Herbicidal Activity CHEAL (phytotoxicity rating, scale 0-100): rated 14 days after application, 0 = no damage, 100 = complete death
Method in brief: as §1

[6] = system: ivyleaf morningglory (Ipomoea hederacea, IPOHE); experiment: as above; conditions: pre-emerge; for phytotoxicity rating IPOHE: 14 days after application, rating scale 0-100; for Pre-emerge Herbicidal Activity IPOHE (phytotoxicity rating, scale 0-100): rated 14 days after application, 0 = no damage, 100 = complete death
Method in brief: as §1

[7] = system: velvetleaf (Abutilon theophrasti, ABUTH); experiment: as above; conditions: pre-emerge; for phytotoxicity rating ABUTH: 14 days after application, rating scale 0-100; for Pre-emerge Herbicidal Activity ABUTH (phytotoxicity rating, scale 0-100): rated 14 days after application, 0 = no damage, 100 = complete death
Method in brief: as §1

[8] = system: field corn (Zea mays L., var. Dekalb 535, CORN); experiment: Post-emerge test, crop safety; conditions: post-emerge, 14 days after application, rating scale 0-100
Method in brief: (§2)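 Rating: 0–100 visual injury, 14 DAA. Application: acetone, 187 l/ha, 15–1000 g ai/ha, flat-fan track sprayer with nozzle 40–45 cm above soil or canopy. Post-emerge runs used 0.25% v/v surfactant on 2–3 leaf plants.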

[9] = system: upland rice (Oryza sp., var. Tebonnet, RICE); experiment: Post-emerge test, crop safety; conditions: post-emerge, 14 days after application, rating scale 0-100
Method in brief: as §2

[10] = system: barnyardgrass (Echinochloa crus-galli, ECHCG); experiment: Post-emerge test, greenhouse herbicide activity screening; conditions: post-emerge, 14 days after application, rating scale 0-100
Method in brief: (§3)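 Plants grown in 10 cm pots of sandy loam mix received acetone-dissolved compounds through a moving flat-fan nozzle. Doses ranged from 15 to 1000 g ai/ha. Pre-emerge pots were seeded one day earlier, post-emerge pots 8–21 days earlier. Fourteen days on, each pot was graded 0–100 for damage.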

[11] = system: large crabgrass (Digitaria sanguinalis, DIGSA); experiment: as above; conditions: post-emerge, 14 days after application, rating scale 0-100
Method in brief: as §3

[12] = system: sicklepod (Cassia obtusifolia, CASOB); experiment: as above; conditions: post-emerge, 14 days after application, rating scale 0-100
Method in brief: as §3

[13] = system: green foxtail (Setaria viridis, SETVI); experiment: as above; conditions: post-emerge, 14 days after application, rating scale 0-100
Method in brief: as §3

[14] = system: lambsquarters (Chenopodium album, CHEAL); experiment: as above; conditions: post-emerge, 14 days after application, rating scale 0-100
Method in brief: as §3

[15] = system: ivyleaf morningglory (Ipomoea hederacea, IPOHE); experiment: as above; conditions: post-emerge, 14 days after application, rating scale 0-100
Method in brief: as §3

[16] = system: velvetleaf (Abutilon theophrasti, ABUTH); experiment: as above; conditions: post-emerge, 14 days after application, rating scale 0-100
Method in brief: as §3

[17] = system: redroot pigweed (Amaranthus retroflexus, AMARE); experiment: as above; conditions: post-emerge, 14 days after application
Method in brief: as §3

[18] = system: field corn (Zea mays L., var. Dekalb 535, CORN); experiment: Pre-emerge test, crop safety; conditions: pre-emerge, 14 days after application, rating scale 0-100
Method in brief: as §2

[19] = system: upland rice (Oryza sp., var. Tebonnet, RICE); experiment: Pre-emerge test, crop safety; conditions: pre-emerge, 14 days after application, rating scale 0-100
Method in brief: as §2

[20] = system: redroot pigweed (Amaranthus retroflexus, AMARE); experiment: Pre-emerge test, greenhouse herbicide activity screening; conditions: pre-emerge; for phytotoxicity rating AMARE: 14 days after application, rating scale 0-100; for Pre-emerge Herbicidal Activity AMARE (phytotoxicity rating, scale 0-100): rated 14 days after application, 0 = no damage, 100 = complete death
Method in brief: as §3

[21] = system: johnsongrass (Sorghum halepense, SORHA); experiment: as above; conditions: pre-emerge; for Pre-emerge Herbicidal Activity SORHA (phytotoxicity rating, scale 0-100): rated 14 days after application, 0 = no damage, 100 = complete death; for phytotoxicity rating SORHA: 14 days after application, rating scale 0-100
Method in brief: as §1

For COc1c(Cl)cc(F)c(-n2c(=O)cc(C(F)(F)F)n(C)c2=O)c1NN=Cc1ccc2ccccc2c1 [15-22], the “phytotoxicity rating ECHCG” value ([1]; 63 g ai/ha) was 60, the “phytotoxicity rating ECHCG” value ([1]; 250 g ai/ha) was 100 and the “phytotoxicity rating DIGSA” value ([2]; 63 g ai/ha) was 100. The “phytotoxicity rating DIGSA” value ([2]; 250 g ai/ha) was 100, the “phytotoxicity rating CASOB” value ([3]; 63 g ai/ha) was 100 and the “phytotoxicity rating CASOB” value ([3]; 250 g ai/ha) was 100. For the same compound, the “phytotoxicity rating SETVI” value ([4]; 63 g ai/ha) was 90, the “phytotoxicity rating SETVI” value ([4]; 250 g ai/ha) was 100 and the “phytotoxicity rating CHEAL” value ([5]; 63 g ai/ha) was 100. The “phytotoxicity rating CHEAL” value ([5]; 250 g ai/ha) was 100, the “phytotoxicity rating IPOHE” value ([6]; 63 g ai/ha) was 50 and the “phytotoxicity rating IPOHE” value ([6]; 250 g ai/ha) was 100. For the same compound, the “phytotoxicity rating ABUTH” value ([7]; 63 g ai/ha) was 100, the “phytotoxicity rating ABUTH” value ([7]; 250 g ai/ha) was 100 and the “Post-emerge Herbicidal Activity CORN (crop damage rating)” value ([8]; 63 g ai/ha) was 30. For the same compound, the “Post-emerge Herbicidal Activity CORN (crop damage rating)” value ([8]; 250 g ai/ha) was 90, the “Post-emerge Herbicidal Activity RICE (crop damage rating)” value ([9]; 63 g ai/ha) was 50 and the “Post-emerge Herbicidal Activity RICE (crop damage rating)” value ([9]; 250 g ai/ha) was 90. For the same compound, the “Post-emerge Herbicidal Activity ECHCG (phytotoxicity rating)” value ([10]; 63 g ai/ha) was 40, the “Post-emerge Herbicidal Activity ECHCG (phytotoxicity rating)” value ([10]; 250 g ai/ha) was 100 and the “Post-emerge Herbicidal Activity DIGSA (phytotoxicity rating)” value ([11]; 63 g ai/ha) was 30. The “Post-emerge Herbicidal Activity DIGSA (phytotoxicity rating)” value ([11]; 250 g ai/ha) was 90, the “Post-emerge Herbicidal Activity CASOB (phytotoxicity rating)” value ([12]; 63 g ai/ha) was 70 and the “Post-emerge Herbicidal Activity CASOB (phytotoxicity rating)” value ([12]; 250 g ai/ha) was 100. For the same compound, the “Post-emerge Herbicidal Activity SETVI (phytotoxicity rating)” value ([13]; 63 g ai/ha) was 40, the “Post-emerge Herbicidal Activity SETVI (phytotoxicity rating)” value ([13]; 250 g ai/ha) was 95 and the “Post-emerge Herbicidal Activity CHEAL (phytotoxicity rating)” value ([14]; 63 g ai/ha) was 100. For the same compound, the “Post-emerge Herbicidal Activity CHEAL (phytotoxicity rating)” value ([14]; 250 g ai/ha) was 100, the “Post-emerge Herbicidal Activity IPOHE (phytotoxicity rating)” value ([15]; 63 g ai/ha) was 100 and the “Post-emerge Herbicidal Activity IPOHE (phytotoxicity rating)” value ([15]; 250 g ai/ha) was 100. The “Post-emerge Herbicidal Activity ABUTH (phytotoxicity rating)” value ([16]; 63 g ai/ha) was 100, the “Post-emerge Herbicidal Activity ABUTH (phytotoxicity rating)” value ([16]; 250 g ai/ha) was 100 and the “Post-emerge Herbicidal Activity AMARE (phytotoxicity rating)” value ([17]; 63 g ai/ha, rating scale 0-100 (0 no damage, 100 complete death)) was 100. For the same compound, the “Post-emerge Herbicidal Activity AMARE (phytotoxicity rating)” value ([17]; 250 g ai/ha, rating scale 0-100) was 100, the “phytotoxicity rating CORN” value ([18]; 63 g ai/ha) was 25 and the “phytotoxicity rating CORN” value ([18]; 250 g ai/ha) was 95. The “phytotoxicity rating RICE” value ([19]; 63 g ai/ha) was 30, the “phytotoxicity rating RICE” value ([19]; 250 g ai/ha) was 99 and the “phytotoxicity rating AMARE” value ([20]; 63 g ai/ha) was 100. For the same compound, the “phytotoxicity rating AMARE” value ([20]; 250 g ai/ha) was 100.
O=c1cc(C(F)(F)F)[nH]c(=O)n1-c1c(F)cc(Cl)c(O)c1[N+](=O)[O-] [Compound 1-2, 3-(4-chloro-6-fluoro-3-hydroxy-2-nitrophenyl)-6-trifluoromethyl-2,4(1H, 3H)-pyrimidinedione] was tested, and the “Pre-emerge Herbicidal Activity ECHCG (phytotoxicity rating, scale 0-100)” value ([1]; 63 g ai/ha) was 0, the “Pre-emerge Herbicidal Activity ECHCG (phytotoxicity rating, scale 0-100)” value ([1]; 250 g ai/ha) was 0 and the “Pre-emerge Herbicidal Activity DIGSA (phytotoxicity rating, scale 0-100)” value ([2]; 63 g ai/ha) was 0. The “Pre-emerge Herbicidal Activity DIGSA (phytotoxicity rating, scale 0-100)” value ([2]; 250 g ai/ha) was 30, the “Pre-emerge Herbicidal Activity CASOB (phytotoxicity rating, scale 0-100)” value ([3]; 63 g ai/ha) was 90 and the “Pre-emerge Herbicidal Activity CASOB (phytotoxicity rating, scale 0-100)” value ([3]; 250 g ai/ha) was 100. The “Pre-emerge Herbicidal Activity SORHA (phytotoxicity rating, scale 0-100)” value ([21]; 63 g ai/ha) was 0, the “Pre-emerge Herbicidal Activity SORHA (phytotoxicity rating, scale 0-100)” value ([21]; 250 g ai/ha) was 0 and the “Pre-emerge Herbicidal Activity SETVI (phytotoxicity rating, scale 0-100)” value ([4]; 63 g ai/ha) was 20. For the same compound, the “Pre-emerge Herbicidal Activity SETVI (phytotoxicity rating, scale 0-100)” value ([4]; 250 g ai/ha) was 0, the “Pre-emerge Herbicidal Activity CHEAL (phytotoxicity rating, scale 0-100)” value ([5]; 63 g ai/ha) was 0 and the “Pre-emerge Herbicidal Activity CHEAL (phytotoxicity rating, scale 0-100)” value ([5]; 250 g ai/ha) was 0. The “Pre-emerge Herbicidal Activity IPOHE (phytotoxicity rating, scale 0-100)” value ([6]; 63 g ai/ha) was 0, the “Pre-emerge Herbicidal Activity IPOHE (phytotoxicity rating, scale 0-100)” value ([6]; 250 g ai/ha) was 0 and the “Pre-emerge Herbicidal Activity ABUTH (phytotoxicity rating, scale 0-100)” value ([7]; 63 g ai/ha) was 50. The “Pre-emerge Herbicidal Activity ABUTH (phytotoxicity rating, scale 0-100)” value ([7]; 250 g ai/ha) was 10, the “Pre-emerge Herbicidal Activity AMARE (phytotoxicity rating, scale 0-100)” value ([20]; 63 g ai/ha) was 0 and the “Pre-emerge Herbicidal Activity AMARE (phytotoxicity rating, scale 0-100)” value ([20]; 250 g ai/ha) was 0.
With COc1c(Cl)cc(F)c(-n2c(=O)cc(C(F)(F)F)n(C)c2=O)c1O [Compound 16-6, 3-(4-chloro-6-fluoro-2-hydroxy-3-methoxyphenyl)-1-methyl-6-trifluoromethyl-2,4(1H, 3H)-pyrimidinedione] the “phytotoxicity rating ECHCG” value ([1]; 63 g ai/ha) was 0, the “phytotoxicity rating ECHCG” value ([1]; 250 g ai/ha) was 50 and the “phytotoxicity rating DIGSA” value ([2]; 63 g ai/ha) was 0. For the same compound, the “phytotoxicity rating DIGSA” value ([2]; 250 g ai/ha) was 70, the “phytotoxicity rating CASOB” value ([3]; 63 g ai/ha) was 50 and the “phytotoxicity rating CASOB” value ([3]; 250 g ai/ha) was 70. The “phytotoxicity rating SORHA” value ([21]; 63 g ai/ha) was 0, the “phytotoxicity rating SORHA” value ([21]; 250 g ai/ha) was 50 and the “phytotoxicity rating SETVI” value ([4]; 63 g ai/ha) was 0. For the same compound, the “phytotoxicity rating SETVI” value ([4]; 250 g ai/ha) was 40, the “phytotoxicity rating CHEAL” value ([5]; 63 g ai/ha) was 90 and the “phytotoxicity rating CHEAL” value ([5]; 250 g ai/ha) was 100. The “phytotoxicity rating IPOHE” value ([6]; 63 g ai/ha) was 50, the “phytotoxicity rating IPOHE” value ([6]; 250 g ai/ha) was 90 and the “phytotoxicity rating ABUTH” value ([7]; 63 g ai/ha) was 90. For the same compound, the “phytotoxicity rating ABUTH” value ([7]; 250 g ai/ha) was 100, the “phytotoxicity rating AMARE” value ([20]; 63 g ai/ha) was 70 and the “phytotoxicity rating AMARE” value ([20]; 250 g ai/ha) was 100.

— patent US6355799B1, “Substituted benzene compounds, process for their preparation, and herbicidal and defoliant compositions containing them” (ISK Americas Incorporated, priority 1997, dated 2002)
